Measured values taken from patent US7691848B2, “Pyrrolobenzodiazepine arylcarboxamides and derivatives thereof as follicle-stimulating hormone receptor antagonists” (Wyeth, priority 2005, dated 2010).

Key:
human FSH receptor = target: T1, human FSH receptor (Homo sapiens, UniProt P23945); test: Follicle-Stimulating Hormone Receptor-Dependent Cre-Luciferase Reporter Gene Assay (CHO FSH-R 6CRE-Luc cells); assay type: cell-based; settings: for IC50: dose-response format, in presence of EC50 of purified human FSH; for inhibition at 30 µM: 2-dose format, concentration in parentheses 30 μM, inhibition of the response to EC50 of FSH
T1 construct: host or cells: CHO-K1 (CHO FSH-R 6CRE-Luc, 1D7 cells)
T1 sequence (P23945 18-695): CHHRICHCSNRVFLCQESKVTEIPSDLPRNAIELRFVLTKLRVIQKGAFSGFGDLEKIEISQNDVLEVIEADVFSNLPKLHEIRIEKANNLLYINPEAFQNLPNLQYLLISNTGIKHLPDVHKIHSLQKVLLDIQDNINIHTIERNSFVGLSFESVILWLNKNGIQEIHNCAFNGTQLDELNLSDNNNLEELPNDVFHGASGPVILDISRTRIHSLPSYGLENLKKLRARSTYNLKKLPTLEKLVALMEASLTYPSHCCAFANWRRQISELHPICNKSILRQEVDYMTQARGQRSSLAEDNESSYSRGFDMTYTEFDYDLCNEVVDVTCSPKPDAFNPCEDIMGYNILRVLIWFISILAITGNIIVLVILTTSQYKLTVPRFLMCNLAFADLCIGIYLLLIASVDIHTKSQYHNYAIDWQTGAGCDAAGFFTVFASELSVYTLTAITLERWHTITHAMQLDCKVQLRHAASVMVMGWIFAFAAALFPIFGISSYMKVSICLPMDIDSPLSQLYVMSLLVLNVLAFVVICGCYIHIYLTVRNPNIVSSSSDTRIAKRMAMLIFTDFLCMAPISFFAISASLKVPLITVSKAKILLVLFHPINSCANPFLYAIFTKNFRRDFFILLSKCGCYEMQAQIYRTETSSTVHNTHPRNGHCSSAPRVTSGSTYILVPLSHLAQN
Source text: Follicle-Stimulating Hormone Receptor-Dependent Cre-Luciferase Reporter Gene Assay for the Identification of Follicle-Stimulating Hormone (FSH) Antagonists
A Chinese hamster ovarian cell line that stably produces the human FSH receptor and a luciferase reporter gene regulated by cAMP response elements was used to identify and determine the relative potencies of human FSH receptor antagonists. See for example, Kelton, C. A., et al. Mol. Cell. Endocrinol. 89:141-151 (1992), Tilly, J. L., et al. Endocrinology 131:799-806(1992), and George, S. E., et al. J. Biomol. Screening 2:235-240 (1997).
Compound Vehicle: Stock compounds were solubilized in an appropriate vehicle, e.g., phosphate buffered saline (PBS) or dimethyl sulfoxide (DMSO), at 30 mM. The compounds were subsequently diluted in DMSO to working dilutions of 1 and 20 or 30 mM for 2-dose testing format and 1 μM-10 mM for dose-response format. The DMSO dilutions were diluted 500-fold in sterile growth medium [D-MEM/F-12 (GIBCO/BRL; Grand Island, NY) containing 15 mM HEPES, 2 mM 1-glutamine, pyridoxine hydrochloride, phenol red and 5% FetalClone® II (HyClone Laboratories, Inc; Logan, Utah), 0.2% DMSO, 100 units penicillin G/ml, and 100 μg streptomycin sulfate/ml (GIBCO/BRL)]. The concentration of the vehicle in each of the compound dilutions was the same.
Positive Controls: Purified human FSH (>98%) was purchased from Cortex Biochem, Inc. (San Leandro, Calif.) and 3-[(2S*,5R*)-5-{[2-(1H-Indol-3-yl)-ethylcarbamoyl]-methyl}-4-oxo-2-(5-phenylethynyl-thiophen-2-yl)-thiazolidin-3-yl]-benzamide (an FSH-R thiazolidinone antagonist) was prepared by processes described by R. A. Scheuerman et al. in U.S. Pat. No. 6,426,357 (Affymax).
The CHO FSH-R 6CRE-Luc cells (1D7 cells) were obtained from Affymax (Palo Alto, Calif.). These Chinese hamster ovary cells (CHO-K1) were engineered genetically to stably express the recombinant human FSH receptor gene and a luciferase reporter gene under the regulation of 6 copies of a cAMP response element. The cells were plated one day prior to treatment into 96-well white opaque plates at a density of 50,000 cells/100 μl/well in growth medium. On the day of treatment, the growth medium was removed from the wells by aspiration and 50 μl of fresh growth medium was added to each well. The cells were incubated at 37° C. in a humidified incubator with 5% CO2/95% air.
The treated cells were incubated for 4 hours at 37° C. in a humidified incubator with 5% CO2/95% air. At the end of the incubation period, luciferase activity was measured by chemiluminescence using a commercially available kit (LucScreen, Tropix, Inc., Bedford, Mass.) according to the manufacturer's specifications, except that Buffer 1 and Buffer 2 were mixed together in equal proportion prior to the addition of 100 μl of the combined reagents to each well. Chemiluminescence was detected using a luminometer (EG & G Berthold Microlumat LB 96 P, Wallac, Gaithersburg, Md.) with chemiluminescence measured for 1 sec/well. Background luminescence was measured for each well prior to the addition of the LucScreen reagent.
In the 96-well 2-dose format, each compound was tested in duplicate at each dose. […] One plate was used to test a maximum of 22 compounds.
The EC50 of purified human FSH alone was tested in triplicate with each test compound. The doses chosen to test each compound were extrapolated from the initial 2-dose screening process. Along with the test compounds, purified human FSH also was tested in a dose response (0.03, 0.1, 0.3, 1, 3, 10, and 30 ng/ml) for a positive control and quality control. One plate was used for 3 test compounds and the FSH positive control.
Luciferase activity is expressed as relative light units/sec/well. Luciferase activity in antagonist was compared to the appropriate negative and positive controls. For 2-dose testing, results are reported as luciferase activity and are expressed as percent inhibition of the response obtained from the EC50 of FSH.

Compound | IC50 (human FSH receptor) [µM] | melting point [°C] | inhibition at 30 µM (human FSH receptor) [%]
O=C(NCc1cccc(C(F)(F)F)c1)c1ccc2n1Cc1ccccc1N(C(=O)COc1ccc(Cl)cc1)C2 [Example 72, 10-[(4-CHLOROPHENOXY)ACETYL]-N-[3-(TRIFLUOROMETHYL)BENZYL]-10,11-DIHYDRO-5H-PYRROLO[2,1-C][1,4]BENZODIAZEPINE-3-CARBOXAMIDE] | > 30 | 143 to 145 | 
Cc1ccccc1-c1ccc(C(=O)N2Cc3ccc(C(=O)NC4Cc5ccccc5C4)n3Cc3ccccc32)cc1C [Example 93] | > 30 | 219 to 220 | 
Cc1ccccc1-c1ccc(C(=O)N2Cc3ccc(C(=O)NCCc4ccc(Cl)cc4)n3Cc3ccccc32)cc1C [Example 27] |  | 169 to 171 | 52
COc1cc(CNC(=O)c2ccc3n2Cc2ccccc2N(C(=O)COc2ccc(Cl)cc2C)C3)ccc1O [Example 78, 10-[(4-CHLORO-2-METHYLPHENOXY)ACETYL]-N-(4-HYDROXY-3-METHOXYBENZYL)-10,11-DIHYDRO-5H-PYRROLO[2,1-C][1,4]BENZODIAZEPINE-3-CARBOXAMIDE] |  | 167 to 168 | 33
COC(=O)c1ccc(CNC(=O)c2ccc3n2Cc2ccccc2N(C(=O)COc2ccc(Cl)cc2C)C3)cc1 [Example 77, METHYL 4-{[({10-[(4-CHLORO-2-METHYLPHENOXY)ACETYL]-10,11-DIHYDRO-5H-PYRROLO[2, 1-C][1,4]BENZODIAZEPIN-3-YL}CARBONYL)AMINO]METHYL}BENZOATE] |  | 165 to 167 | 3.5
COc1ccc(CCNC(=O)c2ccc3n2Cc2ccccc2N(C(=O)c2ccc(-c4ccccc4C)c(C)c2)C3)cc1 [Example 30] |  | 170 to 172 | 62
COc1cc(C(=O)N2Cc3ccc(C(=O)NCc4ccc(OC(F)(F)F)cc4)n3Cc3ccccc32)ccc1-c1ccccc1C [Example 45, 10-[(2-METHOXY-2′-METHYL-1,1′-BIPHENYL-4-YL)CARBONYL]-N-[4-(TRIFLUOROMETHOXY)BENZYL]-10,11-DIHYDRO-5H-PYRROLO[2,1-C][1,4]BENZODIAZEPINE-3-CARBOXAMIDE] | > 30 | 145 to 149 | 
COc1cc(C(=O)N2Cc3ccc(C(=O)NCCCc4ccccc4)n3Cc3ccccc32)ccc1-c1ccccc1C [Example 54, 10-[(2-METHOXY-2′-METHYL-1,1′-BIPHENYL-4-YL)CARBONYL]-N-(3-PHENYLPROPYL)-10,11-DIHYDRO-5H-PYRROLO[2,1-C][1,4]BENZODIAZEPINE-3-CARBOXAMIDE] |  | 191 | 46
COc1cc(C(=O)N2Cc3ccc(C(=O)NC4Cc5ccccc5C4)n3Cc3ccccc32)ccc1-c1ccccc1C [Example 65, N-(2,3-DIHYDRO-1H-INDEN-2-YL)-10-[(2-METHOXY-2′-METHYL-1,1′-BIPHENYL-4-YL)CARBONYL]-10,11-DIHYDRO-5H-PYRROLO[2,1-C][1,4]BENZODIAZEPINE-3-CARBOXAMIDE] | > 30 | 230 to 231 | 
CN(C)c1cccc(NC(=O)c2ccc3n2Cc2ccccc2N(C(=O)COc2ccc(Cl)cc2)C3)c1 [Example 101, 10-[(4-CHLOROPHENOXY)ACETYL]-N-[3-(DIMETHYLAMINO)PHENYL]-10,11-DIHYDRO-5H-PYRROLO[2,1-C][1,4]BENZODIAZEPINE-3-CARBOXAMIDE] | > 30 | 133 to 136 | 
COc1ccc(CCNC(=O)c2ccc3n2Cc2ccccc2N(C(=O)c2ccc(-c4ccccc4C)c(C)c2)C3)cc1OC [Example 28, N-[2-(3,4-DIMETHOXYPHENYL)ETHYL]-10-[(2,2′-DIMETHYL-1,1′-BIPHENYL-4-YL)CARBONYL]-10,11- DIHYDRO-5H-PYRROLO[2,1-C][1,4]BENZODIAZEPINE-3-CARBOXAMIDE] | > 30 | 130 to 136 | 
Cc1ccc(CNC(=O)c2ccc3n2Cc2ccccc2N(C(=O)CSc2ccc(Br)cc2)C3)cc1 [Example 83, 10-{[(4-BROMOPHENYL)THIO]ACETYL}-N-(4-METHYLBENZYL)-10,11-DIHYDRO-5H-PYRROLO[2,1-C][1,4]BENZODIAZEPINE-3-CARBOXAMIDE] |  | 131 to 132 | 24
O=C(NCCc1ccc(O)cc1)c1ccc2n1Cc1ccccc1N(C(=O)CSc1ccc(Br)cc1)C2 [Example 86, 10-{[(4-BROMOPHENYL)THIO]ACETYL}-N-[2-(4-HYDROXYPHENYL)ETHYL]-10,11-DIHYDRO-5H-PYRROLO[2,1-C][1,4]BENZODIAZEPINE-3-CARBOXAMIDE] |  | 168 to 169 | 35
O=C(NC1CCCc2ccccc21)c1ccc2n1Cc1ccccc1N(C(=O)COc1ccc(Cl)cc1)C2 (stereo not drawn) [Example 94, 10-[(4-CHLOROPHENOXY)ACETYL]-N-(1,2,3,4-TETRAHYDRONAPHTHALEN-1-YL)-10,11-DIHYDRO-5H-PYRROLO[2,1-C][1,4]BENZODIAZEPINE-3-CARBOXAMIDE] | > 30 | 199 to 200 | 
COc1cc(C(=O)N2Cc3ccc(C(=O)NCCc4ccc(Cl)cc4)n3Cc3ccccc32)ccc1-c1ccccc1C [Example 53, N-[2-(4-CHLOROPHENYL)ETHYL]-10-[(2-METHOXY-2′-METHYL-1,1′-BIPHENYL-4-YL)CARBONYL]-10,11-DIHYDRO-5H-PYRROLO[2,1-C][1,4]BENZODIAZEPINE-3-CARBOXAMIDE] | > 30 | 195 to 196 | 
CC(C)(C)c1ccc(NC(=O)c2ccc3n2Cc2ccccc2N(C(=O)COc2ccc(Cl)cc2)C3)cc1 [Example 102, N-(4-TERT-BUTYLPHENYL)-10-[(4-CHLOROPHENOXY)ACETYL]-10,11-DIHYDRO-5H-PYRROLO[2,1-C][1,4]BENZODIAZEPINE-3-CARBOXAMIDE] | > 30 | 111 to 113 | 
O=C(NCCc1ccc2c(c1)OCO2)c1ccc2n1Cc1ccccc1N(C(=O)CSc1ccc(Br)cc1)C2 [Example 104, N-[2-(1,3-BENZODIOXOL-5-YL)ETHYL]-10-{[(4-BROMOPHENYL)THIO]ACETYL}-10,11-DIHYDRO-5H-PYRROLO[2,1-C][1,4]BENZODIAZEPINE-3-CARBOXAMIDE] | > 30 | 143 | 
Cc1ccccc1-c1ccc(C(=O)N2Cc3ccc(C(=O)NCc4ccccc4C(F)(F)F)n3Cc3ccccc32)cc1C [Example 24] | > 30 | 126 to 128 | 
